Reference: ChEMBL document CHEMBL3885861, “Open TG-GATES”

Species: Rattus norvegicus
Test: Open TG-GATES - Regimen: Daily Repeat
Assay type: toxicity, organism-based, Sprague-Dawley
Set-up: regimen Daily Repeat, gender Male, age 6 weeks
Details: in vivo, po, 150 mg/kg, route gavage, dose level High; for APTT / Bas / Eos / Fbg / Hb / Ht / Lym / MCH / MCHC / MCV / Mono / Neu / PT / Plat / RBC / Ret / WBC: tissue Blood; for KIDNEY_L / KIDNEY_R / KIDNEY_TOTAL: tissue Kidney; for LIVER: tissue Liver; for A/G / ALP / ALT / AST / BUN / CRE / Ca / Cl / DBIL / GLC / IP / K / LDH / Na / PL / RALB / TBIL / TC / TG / TP / gamma-GTP: tissue Plasma

Which results are given for CC(C)C(=O)Nc1ccc([N+](=O)[O-])c(C(F)(F)F)c1 [FLUTAMIDE]?
TERMINAL_BW (72 h, time 3 day): 205.8 g; APTT (72 h, time 3 day): 17.2 s; Bas (72 h, time 3 day): 0%; Eos (72 h, time 3 day): 0.8%; Fbg (72 h, time 3 day): 219 mg/dL; Hb (72 h, time 3 day): 14.3 g/dL; Ht (72 h, time 3 day): 43.1%; Lym (72 h, time 3 day): 87.4%; MCH (72 h, time 3 day): 21.2 pg; MCHC (72 h, time 3 day): 33.3%; MCV (72 h, time 3 day): 63.6 fL; Mono (72 h, time 3 day): 2.4%; Neu (72 h, time 3 day): 8.6%; PT (72 h, time 3 day): 12.6 s; Plat (72 h, time 3 day): 125 x10_4/uL; RBC (72 h, time 3 day): 677.2 x10_4/ul; Ret (72 h, time 3 day): 3.5%; WBC (72 h, time 3 day): 86 x10_2/uL; KIDNEY_L (72 h, time 3 day): 0.9 g; KIDNEY_R (72 h, time 3 day): 0.9 g; KIDNEY_TOTAL (72 h, time 3 day): 1.8 g; LIVER (72 h, time 3 day): 12.3 g; A/G (72 h, time 3 day): 1.7; ALP (72 h, time 3 day): 1049 IU/L; ALT (72 h, time 3 day): 35.4 IU/L; AST (72 h, time 3 day): 54.2 IU/L; BUN (72 h, time 3 day): 13.2 mg/dL; CRE (72 h, time 3 day): 0.5 mg/dL; Ca (72 h, time 3 day): 10.5 mg/dL; Cl (72 h, time 3 day): 103.4 meq/L; DBIL (72 h, time 3 day): 0.1 mg/dL; GLC (72 h, time 3 day): 203.2 mg/dL; IP (72 h, time 3 day): 7.7 mg/dL; K (72 h, time 3 day): 3.4 meq/L; LDH (72 h, time 3 day): 196.2 IU/L; Na (72 h, time 3 day): 141 meq/L; PL (72 h, time 3 day): 185.2 mg/dL; RALB (72 h, time 3 day): 3.6 g/dL; TBIL (72 h, time 3 day): 0.2 mg/dL; TC (72 h, time 3 day): 113.2 mg/dL; TG (72 h, time 3 day): 77.8 mg/dL; TP (72 h, time 3 day): 5.7 g/dL; gamma-GTP (72 h, time 3 day): 1.4 IU/L; TERMINAL_BW ([…], time 7 day): 233.5 g; TERMINAL_BW ([…], time 14 day): 269.7 g; TERMINAL_BW ([…], time 28 day): 325.6 g; APTT ([…], time 7 day): 18.2 s; Bas ([…], time 7 day): 0%; Eos ([…], time 7 day): 1%; Fbg ([…], time 7 day): 224.6 mg/dL; Hb ([…], time 7 day): 13.5 g/dL; Ht ([…], time 7 day): 40.3%; Lym ([…], time 7 day): 81%; MCH ([…], time 7 day): 20.7 pg; MCHC ([…], time 7 day): 33.4%; MCV ([…], time 7 day): 62 fL; Mono ([…], time 7 day): 2.8%; Neu ([…], time 7 day): 14.6%; PT ([…], time 7 day): 12.6 s; Plat ([…], time 7 day): 123.7 x10_4/uL; RBC ([…], time 7 day): 651 x10_4/ul; Ret ([…], time 7 day): 4.3%; WBC ([…], time 7 day): 111.1 x10_2/uL; APTT ([…], time 14 day): 18.9 s; Bas ([…], time 14 day): 0%; Eos ([…], time 14 day): 1%; Fbg ([…], time 14 day): 228.2 mg/dL; Hb ([…], time 14 day): 13.9 g/dL; Ht ([…], time 14 day): 41.5%; Lym ([…], time 14 day): 79.4%; MCH ([…], time 14 day): 19.9 pg; MCHC ([…], time 14 day): 33.6%; MCV ([…], time 14 day): 59.3 fL; Mono ([…], time 14 day): 3.2%; Neu ([…], time 14 day): 15.2%; PT ([…], time 14 day): 12.9 s; Plat ([…], time 14 day): 115.7 x10_4/uL; RBC ([…], time 14 day): 699.6 x10_4/ul; Ret ([…], time 14 day): 4.5%; WBC ([…], time 14 day): 115.1 x10_2/uL; APTT ([…], time 28 day): 18.2 s; Bas ([…], time 28 day): 0%; Eos ([…], time 28 day): 1.2%; Fbg ([…], time 28 day): 237 mg/dL; Hb ([…], time 28 day): 13.7 g/dL; Ht ([…], time 28 day): 39.9%; Lym ([…], time 28 day): 81.6%; MCH ([…], time 28 day): 19.5 pg; MCHC ([…], time 28 day): 34.3%; MCV ([…], time 28 day): 56.9 fL; Mono ([…], time 28 day): 2.6%; Neu ([…], time 28 day): 13.6%; PT ([…], time 28 day): 12.8 s; Plat ([…], time 28 day): 98 x10_4/uL; RBC ([…], time 28 day): 700.6 x10_4/ul; Ret ([…], time 28 day): 3.7%; WBC ([…], time 28 day): 112 x10_2/uL; KIDNEY_L ([…], time 7 day): 1 g; KIDNEY_R ([…], time 7 day): 1 g; KIDNEY_TOTAL ([…], time 7 day): 2 g; KIDNEY_L ([…], time 14 day): 1.1 g; KIDNEY_R ([…], time 14 day): 1.2 g; KIDNEY_TOTAL ([…], time 14 day): 2.2 g; KIDNEY_L ([…], time 28 day): 1.1 g; KIDNEY_R ([…], time 28 day): 1.2 g; KIDNEY_TOTAL ([…], time 28 day): 2.3 g; LIVER ([…], time 7 day): 15.7 g; LIVER ([…], time 14 day): 16.8 g; LIVER ([…], time 28 day): 20 g; A/G ([…], time 7 day): 1.5; ALP ([…], time 7 day): 797.6 IU/L; ALT ([…], time 7 day): 32.8 IU/L; AST ([…], time 7 day): 46 IU/L; BUN ([…], time 7 day): 16 mg/dL; CRE ([…], time 7 day): 0.4 mg/dL; Ca ([…], time 7 day): 10.7 mg/dL; Cl ([…], time 7 day): 102.8 meq/L; DBIL ([…], time 7 day): 0.086 mg/dL; GLC ([…], time 7 day): 199.8 mg/dL; IP ([…], time 7 day): 7.1 mg/dL; K ([…], time 7 day): 3.5 meq/L; LDH ([…], time 7 day): 177.8 IU/L; Na ([…], time 7 day): 140.6 meq/L; PL ([…], time 7 day): 186.8 mg/dL; RALB ([…], time 7 day): 3.7 g/dL; TBIL ([…], time 7 day): 0.2 mg/dL; TC ([…], time 7 day): 110.6 mg/dL; TG ([…], time 7 day): 42.6 mg/dL; TP ([…], time 7 day): 6.2 g/dL; gamma-GTP ([…], time 7 day): 2 IU/L; A/G ([…], time 14 day): 1.7; ALP ([…], time 14 day): 726.8 IU/L; ALT ([…], time 14 day): 31 IU/L; AST ([…], time 14 day): 47.4 IU/L; BUN ([…], time 14 day): 15 mg/dL; CRE ([…], time 14 day): 0.5 mg/dL; Ca ([…], time 14 day): 10.5 mg/dL; Cl ([…], time 14 day): 103.4 meq/L; DBIL ([…], time 14 day): 0.096 mg/dL; GLC ([…], time 14 day): 181.2 mg/dL; IP ([…], time 14 day): 6.3 mg/dL; K ([…], time 14 day): 3.8 meq/L; LDH ([…], time 14 day): 173.8 IU/L; Na ([…], time 14 day): 140.4 meq/L; PL ([…], time 14 day): 168.8 mg/dL; RALB ([…], time 14 day): 3.8 g/dL; TBIL ([…], time 14 day): 0.2 mg/dL; TC ([…], time 14 day): 104.4 mg/dL; TG ([…], time 14 day): 32.2 mg/dL; TP ([…], time 14 day): 6 g/dL; gamma-GTP ([…], time 14 day): 2.8 IU/L; A/G ([…], time 28 day): 1.8; ALP ([…], time 28 day): 642.2 IU/L; ALT ([…], time 28 day): 29.2 IU/L; AST ([…], time 28 day): 45.2 IU/L; BUN ([…], time 28 day): 16.4 mg/dL; CRE ([…], time 28 day): 0.5 mg/dL; Ca ([…], time 28 day): 10.7 mg/dL; Cl ([…], time 28 day): 104 meq/L; DBIL ([…], time 28 day): 0.1 mg/dL; GLC ([…], time 28 day): 204.4 mg/dL; IP ([…], time 28 day): 7.6 mg/dL; K ([…], time 28 day): 3.7 meq/L; LDH ([…], time 28 day): 110.8 IU/L; Na ([…], time 28 day): 141.8 meq/L; PL ([…], time 28 day): 167.4 mg/dL; RALB ([…], time 28 day): 4.3 g/dL; TBIL ([…], time 28 day): 0.2 mg/dL; TC ([…], time 28 day): 97.4 mg/dL; TG ([…], time 28 day): 26.6 mg/dL; TP ([…], time 28 day): 6.8 g/dL; gamma-GTP ([…], time 28 day): 1.8 IU/L
